In US11458138B2 (Novartis AG, priority 2017, dated 2022):

Assays:
[1] = test system: Phospho-YAP (Ser127) in JHH-5 cells; assay: pYAP HTRF Assay (JHH-5 cells); format: cell-based; conditions: 2 hours
Protocol: Briefly, JHH-5 cells are suspended at 0.48×10^6 cells/ml in William's E medium without phenol-red (Thermo Fisher Scientific Gibco catalog number A1217601) supplemented with 10% (v/v) heat-inactivated fetal bovine serum (Thermo Fisher Scientific Gibco catalog number 16140071) and penicillin-streptomycin at 100 U/ml each (Thermo Fisher Scientific Gibco catalog number 15140122). Cells are dispensed into 384well clear bottom culture plates (50 ul/well, at 24000 cells per well, Greiner catalog number 781091), and incubated for 24 hours in a cell culture incubator at 37° C. Test compounds are transferred into culture plates containing JHH-5 cells using an Echo550 (Labcyte) acoustic dispenser (50 nl/well), followed by incubation for 2 hours at 37° C. Lysis buffer (part of CisBio kit catalog number 64YAPPEI) is added to the assay plates as a four-fold concentrate (corresponding to 16 ul/well) and incubated for 30 minutes at room temperature with agitation. Lysate is transferred from culture plates into white low-volume 384well assay plates (12 ul/well, Greiner catalog number 784075), followed by the addition of 3 ul/well of detection antibodies (part of CisBio kit catalog number 64YAPPEI: 1:40 dilution of each pYAP d2 antibody and pYAP cryptate antibody stocks). The plates are sealed and incubated overnight (18 hours) at room temperature protected from light. Plates are read on an EnVision plate reader (Perkin Elmer) at emission wavelengths of 665 nm and 620 nm. The HTRF signal ratio x per well is calculated as [x=Signal(665 nm)/Signal(620 nm)×10000] as specified in the manufacturer's protocol.

[2] = test system: YAP nuclear translocation in HaCaT cells; assay: YAP Translocation Assay (HaCaT Cells); format: cell-based, human; conditions: Homo sapiens, 24 hours
Outline: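 HaCaT cells (20,000/well) in DMEM + 10% FBS were plated overnight at 37° C, then exposed to compound for 24 h at 37° C. Cells were fixed with PFA, permeabilized with 0.1% Triton/1.5% BSA and imaged by high-content imaging.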

[3] = test system: Phospho-YAP (SER127) in HaCaT cells; assay: pYAP HTRF Assay (HaCaT Cells); format: cell-based, human; conditions: Homo sapiens, 2 hours
Outline: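 Phospho-YAP (Ser127) was measured by HTRF (665 nm/620 nm ratio) in HaCaT cells. Cells were grown 48 hours at 37° C at 5500 cells/well, exposed to compound for 2 hours, and incubated with detection reagents for 20 hrs at room temperature.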

[4] = molecular target: LATS1 (Homo sapiens (Human), UniProt O95835); assay: LATS1 biochemical assay (Table 1A, Compound Examples 1-290; method in the earlier part)
Chain of LATS1 (O95835 whole entry, looked up): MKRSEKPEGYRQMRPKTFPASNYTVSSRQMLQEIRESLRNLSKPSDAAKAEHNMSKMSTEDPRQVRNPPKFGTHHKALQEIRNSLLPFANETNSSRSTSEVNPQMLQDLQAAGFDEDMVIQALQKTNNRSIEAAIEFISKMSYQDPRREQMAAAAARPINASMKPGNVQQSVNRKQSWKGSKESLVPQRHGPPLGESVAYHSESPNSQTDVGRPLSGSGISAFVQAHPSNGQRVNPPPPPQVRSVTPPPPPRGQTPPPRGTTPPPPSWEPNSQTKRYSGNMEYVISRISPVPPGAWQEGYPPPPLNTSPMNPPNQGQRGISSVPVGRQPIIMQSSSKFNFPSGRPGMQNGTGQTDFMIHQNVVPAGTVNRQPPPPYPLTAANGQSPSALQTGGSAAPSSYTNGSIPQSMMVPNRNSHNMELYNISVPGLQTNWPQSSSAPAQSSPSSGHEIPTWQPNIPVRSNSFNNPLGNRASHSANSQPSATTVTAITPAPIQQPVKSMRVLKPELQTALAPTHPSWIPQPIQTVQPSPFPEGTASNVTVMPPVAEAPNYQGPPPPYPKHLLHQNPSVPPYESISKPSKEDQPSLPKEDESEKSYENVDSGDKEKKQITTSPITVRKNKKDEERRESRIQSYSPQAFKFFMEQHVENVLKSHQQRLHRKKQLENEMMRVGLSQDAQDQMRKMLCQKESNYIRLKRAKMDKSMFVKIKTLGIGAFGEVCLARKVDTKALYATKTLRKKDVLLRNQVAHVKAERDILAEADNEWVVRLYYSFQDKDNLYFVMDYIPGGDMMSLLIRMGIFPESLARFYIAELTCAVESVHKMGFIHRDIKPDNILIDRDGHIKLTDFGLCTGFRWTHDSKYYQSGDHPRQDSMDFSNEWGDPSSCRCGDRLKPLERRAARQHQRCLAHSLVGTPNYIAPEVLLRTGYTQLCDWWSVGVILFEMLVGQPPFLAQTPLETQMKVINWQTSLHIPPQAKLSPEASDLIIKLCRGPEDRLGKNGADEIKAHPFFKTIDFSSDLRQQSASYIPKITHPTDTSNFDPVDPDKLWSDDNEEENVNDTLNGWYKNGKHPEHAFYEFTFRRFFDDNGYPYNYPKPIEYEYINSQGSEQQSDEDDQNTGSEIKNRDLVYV
Chain of LATS1 (Q7L9L4 whole entry partner, looked up): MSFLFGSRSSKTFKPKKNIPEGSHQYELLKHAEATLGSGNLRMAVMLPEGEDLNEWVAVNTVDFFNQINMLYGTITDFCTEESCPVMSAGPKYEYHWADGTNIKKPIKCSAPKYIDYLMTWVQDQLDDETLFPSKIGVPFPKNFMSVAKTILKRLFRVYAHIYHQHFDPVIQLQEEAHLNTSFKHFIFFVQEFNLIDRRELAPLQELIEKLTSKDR

Row | Compound | IC50 [1] [nM] | EC50 [2] [nM] | IC50 [3] [nM] | IC50 [4] [nM]
1 | C[C@]1(Nc2nc(-c3ccncc3)nc3cnccc23)C[C@@H](O)C1 [Example 70, (1r,3s)-3-methyl-3-{[2-(pyridin-4-yl)pyrido[3,4-d]pyrimidin-4-yl]amino}cyclobutan-1-ol] | 4000 | 1680 | 422 | 3
2 | CC(C)(CC(=O)O)Nc1nc(-c2ccncc2)nc2cnccc12 [Example 40, 3-methyl-3-{[2-(pyridin-4-yl)pyrido[3,4-d]pyrimidin-4-yl]amino}butanoic acid] | > 10000 | > 20000 | > 10000 | 328
3 | Cc1n[nH]cc1-c1cc(NC(C)(C)C)c2ccncc2n1 [Example 269, N-tert-butyl-2-(3-methyl-1H-pyrazol-4-yl)-1,7-naphthyridin-4-amine] | 800 | 438 | 294 | 1
4 | CC(C)(C)Nc1cc(-c2ccnc(N)n2)nc2cnccc12 [Example 271, 2-(2-aminopyrimidin-4-yl)-N-tert-butyl-1,7-naphthyridin-4-amine] | 800 | 1070 | 187 | 2
5 | CC(C)(Cc1c[nH]c2ccccc12)Nc1nc(-c2ccncc2)nc2cnccc12 [Example 79, N-[1-(1H-indol-3-yl)-2-methylpropan-2-yl]-2-(pyridin-4-yl)pyrido[3,4-d]pyrimidin-4-amine] | 2100 | 3870 | 765 | 11
6 | CC(C)(CN)Nc1nc(-c2ccncc2)nc2cnccc12 [Example 110, N-(1-amino-2-methylpropan-2-yl)-2-(pyridin-4-yl)pyrido[3,4-d]pyrimidin-4-amine] | 1500 | 15300 | 2970 | 2
7 | CCC(C)Nc1nc(-c2ccncc2)nc2cnccc12 (stereo not drawn) [Example 68, N-(butan-2-yl)-2-(pyridin-4-yl)pyrido[3,4-d]pyrimidin-4-amine] | 3500 | 3390 | 1230 | 2
8 | COCC(C)(C)Nc1nc(-c2ccncc2)nc2cnccc12 [Example 7, N-(1-methoxy-2-methylpropan-2-yl)-2-(pyridin-4-yl)pyrido[3,4-d]pyrimidin-4-amine] | 1600 | 733 | 165 | 2
9 | CC(C)(CCO)Nc1nc(-c2ccncc2)nc2cnccc12 [Example 61, 3-methyl-3-{[2-(pyridin-4-yl)pyrido[3,4-d]pyrimidin-4-yl]amino}butan-1-ol] | 1400 | 517 | 141 | 1
10 | CC1(Nc2nc(-c3ccncc3)nc3c(Cl)nccc23)CC1 [Example 198, 8-chloro-N-(1-methylcyclopropyl)-2-(pyridin-4-yl)pyrido[3,4-d]pyrimidin-4-amine] | 1300 | 3230 | 2180 | 1
11 | CC(C)(C)Nc1nc(-c2ccncc2Cl)nc2cnccc12 [Example 116, N-tert-butyl-2-(3-chloropyridin-4-yl)pyrido[3,4-d]pyrimidin-4-amine] | 2200 | 2180 | 782 | 3
12 | CC(C)(C)Nc1nc(-c2c[nH]nc2C(F)(F)F)nc2cnccc12 [Example 115, N-tert-butyl-2-[3-(trifluoromethyl)-1H-pyrazol-4-yl]pyrido[3,4-d]pyrimidin-4-amine] | 3400 | 1660 | 1050 | 2
13 | CCN(C)c1nc(-c2ccncc2)nc2cnccc12 [Example 10, N-ethyl-N-methyl-2-(pyridin-4-yl)pyrido[3,4-d]pyrimidin-4-amine] | 8700 | 3550 | 2960 | 3
14 | Cc1cnccc1-c1nc(NC(C)(C)C)c2ccncc2n1 [Example 117, N-tert-butyl-2-(3-methylpyridin-4-yl)pyrido[3,4-d]pyrimidin-4-amine] | > 10000 | 4470 | 2310 | 4
15 | Cc1n[nH]cc1-c1nc(NC(C)(C)CC(C)(C)O)c2ccncc2n1 [Example 140, 2,4-dimethyl-4-{[2-(3-methyl-1H-pyrazol-4-yl)pyrido[3,4-d]pyrimidin-4-yl]amino}pentan-2-ol] | 2200 | 2260 | 1240 | 4
16 | FC(F)(F)C1(Nc2nc(-c3ccncc3)nc3cnccc23)CC1 [Example 64, 2-(pyridin-4-yl)-N-[1-(trifluoromethyl)cyclopropyl]pyrido[3,4-d]pyrimidin-4-amine] | 2100 | 479 | 63 | 1
17 | CC(C)(C)CC(C)(C)Nc1nc(-c2ccncc2)nc2cnccc12 [Example 72, 2-(pyridin-4-yl)-N-(2,4,4-trimethylpentan-2-yl)pyrido[3,4-d]pyrimidin-4-amine] | 4600 | 3650 | 1170 | 4
18 | CC1(Nc2nc(-c3ccncc3)nc3cnccc23)CC1 [Example 99, N-(1-methylcyclopropyl)-2-(pyridin-4-yl)pyrido[3,4-d]pyrimidin-4-amine] | 5700 | 606 | 113 | 1
19 | CC(C)(C)Nc1nc(-c2ccnc(N)c2)nc2cnccc12 [Example 112, 4-[4-(tert-butylamino)pyrido[3,4-d]pyrimidin-2-yl]pyridin-2-amine] | 3200 | 3520 | 1210 | 2
20 | CC(C)(O)C(C)(C)Nc1nc(-c2ccncc2)nc2cnccc12 [Example 71, 2,3-dimethyl-3-{[2-(pyridin-4-yl)pyrido[3,4-d]pyrimidin-4-yl]amino}butan-2-ol] | > 10000 | 1570 | 26 | 4
21 | CCN(c1nc(-c2ccncc2)nc2cnccc12)C(C)C [Example 3, N-ethyl-N-(propan-2-yl)-2-(pyridin-4-yl)pyrido[3,4-d]pyrimidin-4-amine] | 1000 | 641 | 853 | 1
22 | COCCC(C)(C)Nc1nc(-c2ccncc2)nc2cnccc12 [Example 8, N-(4-methoxy-2-methylbutan-2-yl)-2-(pyridin-4-yl)pyrido[3,4-d]pyrimidin-4-amine] | 1900 | 1200 | 198 | 3
23 | OCCNc1nc(-c2ccncc2)nc2cnccc12 [Example 85, 2-{[2-(pyridin-4-yl)pyrido[3,4-d]pyrimidin-4-yl]amino}ethan-1-ol] | > 10000 | 9810 | 31000 | 25
24 | Cc1cnccc1-c1nc(NC(C)(C)C(F)(F)F)c2ccncc2n1 [Example 157, 2-(3-methylpyridin-4-yl)-N-(1,1,1-trifluoro-2-methylpropan-2-yl)pyrido[3,4-d]pyrimidin-4-amine] | 9200 | 3780 | 4050 | 6
25 | CCC(C)(C)Nc1nc(-c2ccncc2Cl)nc2cnccc12 [Example 118, 2-(3-chloropyridin-4-yl)-N-(2-methylbutan-2-yl)pyrido[3,4-d]pyrimidin-4-amine] | 4000 | 5010 | 2050 | 5
26 | CC(C)(Nc1nc(-c2ccncc2)nc2cnccc12)C1CCCCC1 [Example 15, N-(2-cyclohexylpropan-2-yl)-2-(pyridin-4-yl)pyrido[3,4-d]pyrimidin-4-amine] | 4100 | 3480 | 660 | 4
27 | CC(C)(C)Nc1cc(-c2ccncn2)nc2cnccc12 [Example 270, N-tert-butyl-2-(pyrimidin-4-yl)-1,7-naphthyridin-4-amine] | 800 | 873 | 423 | 2
